Experimental data as given in patent publication US10584108B2, “Therapeutic compounds and methods of use thereof” (KUALITY HERBCEUTICS LLC, priority 2015, dated 2020).

Assays:
[1] = tested on: NNK-induced O^6-mG in A/J mouse lung tissues; experiment: Test A: in vivo effect on NNK-induced O^6-mG in A/J mouse lung tissues; conditions: A/J mice, compound 0.2 mg/g of diet for seven days, NNK 100 mg/kg i.p., lung tissue four hours after NNK
Text: The ability of a compound of the invention to effect NNK-induced O^6-mG in A/J mouse lung tissues may be determined using pharmacological models which are well known to the art, or using Test A described below.
General Procedure of the In Vivo Effect on NNK-induced O^6-mG in A/J Mouse Lung Tissues
Five-six week old A/J mice were purchased from Jackson Lab. After one week of acclimatization, mice were randomized into different groups. Mice were given to the AIN-G powdered diet supplemented with the corresponding compound at a dose of 0.2 mg/g of diet for seven days. Subsequently, with the exception of mice in the negative control groups, animals were given NNK (100 mg/kg of bodyweight at the beginning of Day 7 via i.p. injection) (control mice will be given saline). Four hours NNK administration, mice in each group were euthanized with serum, urine, lung and liver tissues collected. O^6-mG DNA adducts in the lung tissues were quantified following established procedures (1, 2). The relative amount of reduction was calculated as the percentage of reduction relative the amount of O^6-mG in the NNK-treated positive control group.

[2] = tested on: CYP1A1 mRNA in Hepe1c1c7 cells; experiment: Test B: in vitro effect on CYP1A1 activation (CYP1A1 mRNA by q-RT PCR); assay type: cell-based; conditions: 5 μM in 0.5% DMSO, ratio treated to untreated, normalized to GAPDH mRNA
Method: The ability of a compound of the invention to effect CYP1A1 activation may be determined using pharmacological models which are well known to the art, or using Test B described below.
General Procedures of the In Vitro Effect on CYP1A1 Activation
Hepe1c1c7 cells were cultured under standard conditions and seeded in 6-well plate. After complete attachment (12-24 hours after seeding), the cells were treated with the corresponding compounds at the concentration of 5 μM, supplemented in 0.5% DMSO. Cells were trypsinized and pelleted. mRNAs were isolated. The relative amount of CYP1A1 mRNA were quantified via q-RT PCR and normalized to the amount of GAPDH mRNA from the same sample. Induction of CYP1A1 mRNA is defined as the ratio of CYP1A1 mRNA between treated samples to the untreated sample.

[3] = tested on: NNK-induced DNA damage (O^6-mG); conditions: background statement, literature; cited from earlier work
[4] = tested on: NNK-induced lung tumorigenesis; conditions: background statement, literature; cited from earlier work
[5] = molecular target: T1, aryl hydrocarbon receptors (Homo sapiens, UniProt P35869); conditions: background statement, literature; cited from earlier work
T1 sequence (P35869 11-848): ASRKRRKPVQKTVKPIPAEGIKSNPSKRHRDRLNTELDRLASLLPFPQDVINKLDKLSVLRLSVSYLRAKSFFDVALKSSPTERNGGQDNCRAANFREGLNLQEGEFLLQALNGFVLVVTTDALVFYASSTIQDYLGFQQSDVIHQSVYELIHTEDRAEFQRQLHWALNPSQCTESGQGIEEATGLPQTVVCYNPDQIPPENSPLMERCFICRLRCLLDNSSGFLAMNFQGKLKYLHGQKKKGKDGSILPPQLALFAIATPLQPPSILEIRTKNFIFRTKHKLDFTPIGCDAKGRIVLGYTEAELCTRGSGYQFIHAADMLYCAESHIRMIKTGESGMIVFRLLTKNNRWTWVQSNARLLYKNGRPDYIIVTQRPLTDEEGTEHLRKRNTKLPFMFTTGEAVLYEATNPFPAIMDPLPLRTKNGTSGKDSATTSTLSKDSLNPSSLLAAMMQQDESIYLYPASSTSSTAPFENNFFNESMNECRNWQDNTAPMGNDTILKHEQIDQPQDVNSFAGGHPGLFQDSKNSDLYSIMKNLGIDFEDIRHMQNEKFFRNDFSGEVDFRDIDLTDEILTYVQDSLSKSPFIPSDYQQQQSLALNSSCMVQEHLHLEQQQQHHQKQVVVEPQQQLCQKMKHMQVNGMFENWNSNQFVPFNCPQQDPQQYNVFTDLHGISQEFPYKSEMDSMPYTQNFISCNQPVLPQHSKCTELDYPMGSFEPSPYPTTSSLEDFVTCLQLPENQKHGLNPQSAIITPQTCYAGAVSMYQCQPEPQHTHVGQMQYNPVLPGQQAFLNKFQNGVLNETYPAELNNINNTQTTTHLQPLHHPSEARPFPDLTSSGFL

SMILES	Induction of CYP1A1 mRNA [2]	Relative amount of reduction in O^6-mG (mean ± SD) % in comparison to NNK-treated control [1] [%]	further results
COC1=CC(=O)OC(CCc2ccc3c(c2)OCO3)C1 (stereo not drawn)	–	72.7 ± 6.6	–
COC1=CC(=O)O[C@H](CCc2ccc3c(c2)OCO3)C1	–	79.6 ± 1.5	–
COC1=CC(=O)OC(/C=C/c2ccc3c(c2)OCO3)C1 (stereo not drawn)	0.26 ± 0.01	54.6 ± 1.2	–
COC1=CC(=O)CC(CCc2ccc3c(c2)CCC3)C1 (stereo not drawn)	–	11.8 ± 23.1	–
COC1=CC(=O)OC(CCc2ccc3c(c2)OCO3)C1C (stereo not drawn)	2.16 ± 0.11	–	–
O=C1C=CCC(CCc2ccc3c(c2)OCO3)O1 (stereo not drawn)	5.94 ± 0.22	35.2 ± 31.8	–
COC1=CC(=O)OC(C)(CCc2ccc3c(c2)OCO3)C1 (stereo not drawn)	2.49 ± 0.08	56.2 ± 8.1	–
COC1=CC(=O)O[C@@H](CCc2ccc3c(c2)OCO3)C1 [(+)-Dihydromethysticin]	–	–	Inhibition of NNK-induced O^6-mG DNA damage [3]: can be inhibited; Block of NNK-induced lung tumorigenesis [4]: effectively block
COC1=CC(=O)O[C@@H](CCc2ccc3c(c2)OCO3)C1 [dihydromethysticin]	–	–	Activation of aryl hydrocarbon receptors [5]: activate
COC1=CC(=O)O[C@@H](CCc2ccc3c(c2)OCO3)C1 [drawing 26]	1.88 ± 0.07	76.9 ± 2.6	–
COC1=CC(=O)OC(/C=C/c2ccc3c(c2)OCCO3)C1 (stereo not drawn) [drawing 40]	1.15 ± 0.02	5.2 ± 13.0	–
COC1=CC(=O)OC(/C=C/c2ccc3c(c2)OCCO3)C1 (stereo not drawn) [drawing 65]	–	5.2 ± 13.0	–

Further lines, with some results ahead:

Induction of CYP1A1 mRNA [2]	SMILES	Relative amount of reduction in O^6-mG (mean ± SD) % in comparison to NNK-treated control [1] [%]	further results
5.58 ± 0.55	COC1=CC(=O)CC(CCc2ccc3c(c2)OCO3)C1 (stereo not drawn)	63.7 ± 21.9	–
5.61 ± 0.40	COC1=CC(=O)OC(CCc2ccc(OC)c(O)c2)C1 (stereo not drawn)	−2.6 ± 14.7	–
0.79 ± 0.02	COC1=CC(=O)OC(CCc2ccc3c(c2)CCC3)C1 (stereo not drawn)	29.7 ± 16.3	–
0.59 ± 0.04	COC1=C(C)C(=O)OC(CCc2ccc3c(c2)OCO3)C1 (stereo not drawn)	65.3 ± 5.8	–
1.20 ± 0.1	O=C1C=C(O)CC(CCc2ccc3c(c2)OCO3)O1 (stereo not drawn)	55.9 ± 19.7	–
3.73 ± 0.26	COC1=CC(=O)OC(CCc2ccc3c(c2)OCCO3)C1 (stereo not drawn)	3.24 ± 13.4	–
